The results in this text go back to patent US6667312B2, “Thioether substituted imidazoquinolines” (3M Innovative Properties Company, priority 2000, dated 2003).

The structures appear in SMILES notation.

In one data set the test system is interferon (α). The data set is described as follows: Cytokine Induction in Human Cells: interferon. Type of data set: cell-based. The following applies: human PBMC, 18 to 24 hours, tested 30-0.014 μM, interferon (α) by ELISA; read-out: Lowest Effective Concentration (μM) Interferon. From the text:
(§1) An in vitro human blood cell system is used to assess cytokine induction. Activity is based on the measurement of interferon and tumor necrosis factor (α) (IFN and TNF, respectively) secreted into culture media as described by Testerman et. al. In “Cytokine Induction by the Immunomodulators Imiquimod and S-27609”, Journal of Leukocyte Biology, 58, 365-372 (September, 1995).
(§2) Whole blood from healthy human donors is collected by venipuncture into EDTA vacutainer tubes. Peripheral blood mononuclear cells (PBMC) are separated from whole blood by density gradient centrifugation using Histopaque®-1077. Blood is diluted 1:1 with Dulbecco's Phosphate Buffered Saline (DPBS) or Hank's Balanced Salts Solution (HBSS). The PBMC layer is collected and washed twice with DPBS or HBSS and resuspended at 4×10^6 cells/mL in RPMI complete. The PBMC suspension is added to 48 well flat bottom sterile tissue culture plates (Costar, Cambridge, Mass. or Becton Dickinson Labware, Lincoln Park, N.J.) containing an equal volume of RPMI complete media containing test compound.
(§3) The compounds are solubilized in dimethyl sulfoxide (DMSO). The DMSO concentration should not exceed a final concentration of 1% for addition to the culture wells. The compounds are generally tested at concentrations ranging from 30-0.014 μM.
(§4) The solution of test compound is added at 60 μM to the first well containing RPMI complete and serial 3 fold dilutions are made in the wells. The PBMC suspension is then added to the wells in an equal volume, bringing the test compound concentrations to the desired range (30-0.014 μM). The final concentration of PBMC suspension is 2×10^6 cells/mL. The plates are covered with sterile plastic lids, mixed gently and then incubated for 18 to 24 hours at 37° C. in a 5% carbon dioxide atmosphere.
(§5) Following incubation the plates are centrifuged for 10 minutes at 1000 rpm (˜200× g) at 4° C. The cell-free culture supernatant is removed with a sterile polypropylene pipet and transferred to sterile polypropylene tubes. Samples are maintained at −30 to −70° C. until analysis. The samples are analyzed for interferon (α) by ELISA and for tumor necrosis factor (α) by ELISA or IGEN Assay
Interferon (α) concentration is determined by ELISA using a Human Multi-Species kit from PBL Biomedical Laboratories, New Brunswick, N.J. Results are expressed in pg/mL.
(§6) The table below lists the lowest concentration found to induce interferon and the lowest concentration found to induce tumor necrosis factor for each compound.
A general note: In an ELISA, binding on a coated surface is turned into a signal by an enzyme label.

For data set [1], the system named is tumor necrosis factor (α). The data set is described as follows: Cytokine Induction in Human Cells: tumor necrosis factor. The format is cell-based. Also on record: key to Lowest Effective Concentration (μM) Tumor Necrosis Factor: A “*” indicates that no induction was seen at any of the tested concentrations. The following applies: human PBMC, 18 to 24 hours, tested 30-0.014 μM, TNF by ELISA or IGEN assay; for minimal effective concentration: read-out: Lowest Effective Concentration (μM) Tumor Necrosis Factor.
Excerpt: as §1, §2, §3, §4, §5
Tumor necrosis factor (α) (TNF) concentration is determined using ELISA kits available from Biosource International, Camarillo, Calif. Alternately, the TNF concentration can be determined by Origen® M-Series Immunoassay and read on an IGEN M-8 analyzer from IGEN International, Gaithersburg, Md. The immunoassay uses a human TNF capture and detection antibody pair from Biosource International, Camarillo, Calif. Results are expressed in pg/mL.
as §6

A word on the melting point: it is the temperature of the solid-liquid transition. `CCc1nc2c(N)nc3ccccc3c2n1CCCS(C)(=O)=O` [Example 25, 2-ethyl-1-[3-(methylsulfonyl)propyl]-1H-imidazo[4,5-c]quinolin-4-amine] gave a melting point of more than 250 °C. Besides, the minimal effective concentration with interferon (α) was determined as 0.37 µM. Also, in data set [1], the minimal effective concentration was 3.33 µM.
The corresponding values for `CSCCCCn1c(C)nc2c(N)nc3ccccc3c21` [Example 26, 2-methyl-1-[4-(methylthio)butyl]-1H-imidazo[4,5-c]quinolin-4-amine] are 190 to 193 °C, 0.04 µM and 0.37 µM.
The corresponding values for `Cc1nc2c(N)nc3ccccc3c2n1CCCC[S+](C)[O-]` (stereo not drawn) [Example 27, 2-methyl-1-[4-(methylsulfinyl)butyl]-1H-imidazo[4,5-c]quinolin-4-amine] are 184 to 187 °C, 3.33 µM and 10 µM.
For `CCc1nc2c(N)nc3ccccc3c2n1CCCCSC` [Example 28, 2-ethyl-1-[4-(methylthio)butyl]-1H-imidazo[4,5-c]quinolin-4-amine], in that order: 183 to 186 °C, 0.01 µM and 0.37 µM.
`CCc1nc2c(N)nc3ccccc3c2n1CCCCS(C)(=O)=O` [Example 29, 2-ethyl-1-[4-(methylsulfonyl)butyl]-1H-imidazo[4,5-c]quinolin-4-amine] came in with a melting point of 182 to 185 °C. Further, the minimal effective concentration in the data set on interferon (α) was 0.12 µM. Further, the minimal effective concentration in data set [1] came to 3.33 µM.
`CCCCc1nc2c(N)nc3ccccc3c2n1CCCC[S+](C)[O-]` (stereo not drawn) [Example 31, 2-butyl-1-[4-(methylsulfinyl)butyl]-1H-imidazo[4,5-c]quinolin-4-amine] had a melting point of 126 to 128 °C. Moreover, in the data set on interferon (α), the minimal effective concentration was found to be 0.04 µM. Moreover, the minimal effective concentration in data set [1] was found to be 0.12 µM.
With `CSCCn1c(C)nc2c(N)nc3ccccc3c21` [Example 32, 2-methyl-1-[2-(methylthio)ethyl]-1H-imidazo[4,5-c]quinolin-4-amine], the melting point lay in the range of 193 to 195 °C. For the same compound, the minimal effective concentration with interferon (α) is 0.12 µM. Further, in data set [1], the minimal effective concentration is 0.12 µM.
In the case of `Cc1nc2c(N)nc3ccccc3c2n1CCS(C)(=O)=O` [Example 33, 2-methyl-1-[2-(methylsulfonyl)ethyl]-1H-imidazo[4,5-c]quinolin-4-amine], the melting point is 242 to 245 °C. Moreover, the minimal effective concentration with interferon (α) is 3.33 µM. In addition, the minimal effective concentration in data set [1] is 10 µM.
The corresponding values for `Cc1nc2c(N)nc3ccccc3c2n1CCCCS(C)(=O)=O` [Example 34, 2-methyl-1-[4-(methylsulfonyl)butyl]-1H-imidazo[4,5-c]quinolin-4-amine] are 206 to 209 °C, 0.37 µM and 3.33 µM.
Turning to `CCc1nc2c(N)nc3ccccc3c2n1CCS(C)(=O)=O` [Example 35, 2-ethyl-1-[2-(methylsulfonyl)ethyl]-1H-imidazo[4,5-c]quinolin-4-amine], the melting point was 222 to 225 °C. Besides, the minimal effective concentration in the data set with interferon (α) turned out to be 1.11 µM. Besides, the minimal effective concentration in data set [1] was 3.33 µM.
`CCCc1nc2c(N)nc3ccccc3c2n1CCS(C)(=O)=O` [Example 36, 1-[2-(methylsulfonyl)ethyl]-2-propyl-1H-imidazo[4,5-c]quinolin-4-amine] yielded a melting point of 212 to 214 °C. Further, the minimal effective concentration in the data set on interferon (α) was 1.11 µM. Besides, in data set [1], the minimal effective concentration was 1.11 µM.
In turn, `CCCCc1nc2c(N)nc3ccccc3c2n1CCCCSc1ccc(F)cc1F` [Example 37, 2-butyl-1-{4-[(2,4-difluorophenyl)thio]butyl}-1H-imidazo[4,5-c]quinolin-4-amine] came in with a melting point of 122 to 126 °C. Also, the minimal effective concentration in the data set with interferon (α) was found to be 0.37 µM. In data set [1], the minimal effective concentration was determined as 1.11 µM.
For `CCCCc1nc2c(N)nc3ccccc3c2n1CCCCS(=O)(=O)c1ccc(F)cc1F` [Example 38, 2-butyl-1-{4-[(2,4-difluorophenyl)sulfonyl]butyl}-1H-imidazo[4,5-c]quinolin-4-amine], in that order: 190 to 193 °C, 0.37 µM and 1.11 µM.
As to `CCCCc1nc2c(N)nc3ccccc3c2n1CCS(C)(=O)=O` [Example 67, 2-butyl-1-[2-(methylsulfonyl)ethyl]-1H-imidazo[4,5-c]quinolin-4-amine], the melting point lay within 226 to 228 °C. Also, the minimal effective concentration in the data set with interferon (α) was 0.01 µM. For the same compound, in data set [1], the minimal effective concentration stood at 0.04 µM.
In turn, `Cc1nc2c(N)nc3ccccc3c2n1CCCCCCS(C)(=O)=O` [Example 68, 2-methyl-1-[6-(methylsulfonyl)hexyl]-1H-imidazo[4,5-c]quinolin-4-amine] gave a melting point of 202 to 206 °C. Moreover, in the data set on interferon (α), the minimal effective concentration was found to be 0.014 µM. Besides, the minimal effective concentration in data set [1] is 0.12 µM.
As for `Nc1nc2ccccc2c2c1ncn2CCCCCS(=O)(=O)c1ccccc1` [Example 69, 1-[5-(phenylsulfonyl)pentyl]-1H-imidazo[4,5-c]quinolin-4-amine], the melting point was 171 to 172 °C. Besides, the minimal effective concentration in the data set with interferon (α) amounted to 1.11 µM. In data set [1], the minimal effective concentration worked out at 1.11 µM.
Consider `COCCc1nc2c(N)nc3ccccc3c2n1CCCCCS(=O)(=O)c1ccccc1` [Example 70, 2-(2-methoxyethyl)-1-[5-(phenylsulfonyl)pentyl]-1H-imidazo[4,5-c]quinolin-4-amine], for which the melting point fell in the range of 172 to 175 °C. In addition, the minimal effective concentration in the data set with interferon (α) came out at 0.01 µM. For the same compound, the minimal effective concentration in data set [1] turned out to be 0.01 µM.
As for `CS(=O)(=O)CCCCCn1c(C(F)(F)F)nc2c(N)nc3ccccc3c21` [Example 71, 1-[5-(methylsulfonyl)pentyl]-2-(trifluoromethyl)-1H-imidazo[4,5-c]quinolin-4-amine], the melting point is 192 to 195 °C. In the data set with interferon (α), the minimal effective concentration is 30 µM. Further, the “Lowest Effective Concentration (μM) Tumor Necrosis Factor” value in data set [1] is listed as “*”.
